From PMC3859608, “C-Terminus of the B-Chain of Relaxin-3 Is Important for Receptor Activity” (PLoS ONE, 2013)
No end group written: not given here.

T1: RXFP3 (Homo sapiens, UniProt Q9NSD7)
T1 construct: expressed in transfected cells
T1 sequence (Q9NSD7 1-469): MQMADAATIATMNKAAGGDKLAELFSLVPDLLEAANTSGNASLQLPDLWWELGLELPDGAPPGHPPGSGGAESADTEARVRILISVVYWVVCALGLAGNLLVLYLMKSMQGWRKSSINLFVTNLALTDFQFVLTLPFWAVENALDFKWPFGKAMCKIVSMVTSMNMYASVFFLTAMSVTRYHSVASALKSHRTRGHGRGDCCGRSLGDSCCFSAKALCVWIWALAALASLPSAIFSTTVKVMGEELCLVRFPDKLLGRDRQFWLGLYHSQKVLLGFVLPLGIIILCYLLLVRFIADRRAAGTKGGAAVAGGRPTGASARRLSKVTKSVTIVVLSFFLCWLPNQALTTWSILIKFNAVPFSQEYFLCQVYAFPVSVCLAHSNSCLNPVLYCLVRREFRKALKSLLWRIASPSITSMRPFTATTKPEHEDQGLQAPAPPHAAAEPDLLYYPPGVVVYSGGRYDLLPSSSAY

B1: INSL3: relaxin family peptide (peptide, UniProt P51460 21-55; P51460 106-131, looked up)
Insulin-like 3 B chain: LGPAPTPEMREKLCGHHFVRALVRVCGGPRWSTEA
Insulin-like 3 A chain: AAATNPARYCCLSGCTQQDLLTLCPY
modifications: not fully specified (bridges); ends and bridges not checked
notes: relaxin family peptide

Key:
RXFP4 [1] = target: T2, RXFP4 (Homo sapiens, UniProt Q8TDU9); assay: cAMP activity (inhibition of forskolin-induced cAMP), CHO-K1 cells expressing RXFP4; assay type: cell-based; details: CHO-K1 RXFP4, pCRE-β-galactosidase reporter; forskolin 5 µM (method) / 1 µM (Fig. 3 legend); peptide 0.01 nM – 1 µM; mean ± SEM, n = 3, triplicate determinations; vs H3 acid: * H3 amide, ** p<0.01 H3 A-acid; read-out: RXFP4 cAMP pEC50 (converted)
T2 construct: expressed in transfected cells
T2 sequence (Q8TDU9 whole entry, species assumed): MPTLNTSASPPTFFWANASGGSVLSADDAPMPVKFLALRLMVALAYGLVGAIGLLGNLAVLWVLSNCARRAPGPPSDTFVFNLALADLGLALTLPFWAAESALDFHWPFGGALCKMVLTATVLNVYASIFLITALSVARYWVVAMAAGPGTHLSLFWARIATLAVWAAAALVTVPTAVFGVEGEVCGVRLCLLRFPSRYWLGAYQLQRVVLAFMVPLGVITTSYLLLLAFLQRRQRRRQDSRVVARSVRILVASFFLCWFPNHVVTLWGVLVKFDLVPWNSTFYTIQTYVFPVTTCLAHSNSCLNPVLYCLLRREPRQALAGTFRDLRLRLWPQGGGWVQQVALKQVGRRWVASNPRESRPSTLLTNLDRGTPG
Description: (§1) The ability of the peptides to activate the receptors RXFP3/RXFP4 was assessed by measuring their influence on cAMP signalling in CHO-K1 cells stably expressing RXFP3 or RXFP4 transfected with a pCRE-β-galactosidase reporter gene construct as previously described. A single concentration of forskolin was used to stimulate cAMP signalling in cells expressing RXFP3 (1 µM) and RXFP4 (5 µM) and peptide induced inhibition of cAMP signalling was measured by adding increasing concentrations of the peptides (0.01 nM – 1 µM). The ability of the peptides to inhibit forskolin-induced cAMP response (pEC50) was measured and expressed as mean ± SEM from three independent experiments with triplicate determinations within each assay. The inhibition curves were fitted to a single-site sigmoidal dose-response curve with variable slope using Graphpad PRISM 5.
(§2) Figure 3 Receptor binding affinity (pKi) and cAMP activity (pEC-50) curves of H3 relaxin and its variants at RXFP4. A) Competition binding curves of H3 relaxin variants at RXFP4 using a single concentration of Eu-INSL5 (2.5 nM) in the presence of increasing concentrations of the H3 relaxin peptides. B) RXFP4 activation curves of H3 relaxin variants measured in a cAMP activity assays in the presence of 1 µM forskolin. The data were expressed as mean ± SEM from at least three independent experiments.

RXFP3 [2] = target: T1, RXFP3; assay: Competition binding, Eu-labelled I5/R3, CHO-K1 cells expressing RXFP3; details: CHO-K1 cells stably expressing RXFP3; Eu-I5/R3 0.5 nM; one site competition fit; mean ± SEM, n in parentheses in cell (3; H3 amide 4), triplicate determinations; ** p<0.01 vs H3 acid (H3 amide, H3 A-acid); read-out: RXFP3 Eu-H3/I5 pKi (converted)
Description: (§3) The receptor binding affinity of the peptides was measured using CHO-K1 cells stably expressing RXFP3 and RXFP4. The competition binding assays were carried out as previously described, [27]. Briefly, a single concentration of Eu-labelled I5/R3 (0.5 nM) or Eu-labelled mouse INSL5 (2.5 nM) were used in presence of increasing concentration of peptides. The data were analyzed using GraphPad PRISM 5 (GraphPad Inc., San Diego, USA). The europium binding curves were fitted to a one site competition curve and the pKi values were expressed as the mean ± SEM of at least three independent experiments with triplicate determinations within each assay.
(§4) Figure 2 Receptor binding affinity (pKi) and cAMP activity (pEC-50) curves of H3 relaxin and its variants at RXFP3. A) Competition binding curves of H3 relaxin variants using a single concentration of Eu-I5/R3 (0.5 nM) in the presence of increasing concentrations of the H3 relaxin peptides. B) RXFP3 activation curves of H3 relaxin variants measured in a cAMP activity assay in the presence of 5 µM forskolin. The data were expressed as mean ± SEM. from at least three independent experiments.

RXFP3 [3] = target: T1, RXFP3; assay: cAMP activity (inhibition of forskolin-induced cAMP), CHO-K1 cells expressing RXFP3; assay type: cell-based; details: CHO-K1 RXFP3, pCRE-β-galactosidase reporter; forskolin 1 µM (method) / 5 µM (Fig. 2 legend); peptide 0.01 nM – 1 µM; mean ± SEM, n = 3, triplicate determinations; ** p<0.01 vs H3 acid (H3 amide, H3 A-acid); read-out: RXFP3 cAMP pEC50 (converted)
Description: as §1, §4

RXFP4 [4] = target: T2, RXFP4; assay: Competition binding, Eu-labelled mouse INSL5, CHO-K1 cells expressing RXFP4; details: CHO-K1 cells stably expressing RXFP4; Eu-labelled mouse INSL5 2.5 nM; one site competition fit; mean ± SEM, n = 3, triplicate determinations; vs H3 acid: * H3 amide, ** p<0.01 H3 A-acid; read-out: RXFP4 Eu-INSL5 pKi (converted)
Description: as §3, §2

[5] = cited from earlier work; for activity by C-terminal form: C-terminal amide vs acid
From the text: The bioactivity of many polypeptide hormones often requires a form of post-translational modification of their precursors. An example of a widespread modification is C-terminal amidation which often leads to an increase in bioactivity of peptides [32]–[35]. In some cases, amidation of the C-terminus has been reported to have detrimental effect on the activity of peptides, [36]. […] In the case of relaxin family peptides, H2 relaxin and INSL3, both p ...

Molecule	EC50 (RXFP4 [1]) [nM]	Ki (RXFP3 [2]) [nM]	EC50 (RXFP3 [3]) [nM]	Ki (RXFP4 [4]) [nM]	activity by C-terminal form [5]	activity of acid vs amide form [5]
CC[C@H](C)[C@@H]1NC(=O)[C@H](Cc2ccccc2)NC(=O)[C@H](CCC(=O)O)NC(=O)[C@H](CCCNC(=N)N)NC(=O)CNC(=O)[C@@H](NC(=O)[C@H](CC(C)C)NC(=O)[C@H](CCCNC(=N)N)NC(=O)[C@@H](NC(=O)CNC(=O)[C@H](Cc2ccc(O)cc2)NC(=O)[C@@H]2CCCN2C(=O)[C@H](C)NC(=O)[C@H](C)NC(=O)[C@@H](N)CCCNC(=N)N)C(C)C)CSSC[C@@H]2NC(=O)[C@@H](NC(=O)[C@H](CO)NC(=O)[C@H](CO)NC(=O)[C@H](CO)NC(=O)[C@H](CC(C)C)NC(=O)CNC(=O)[C@H](C)NC(=O)[C@H](CC(C)C)NC(=O)[C@@H](NC(=O)[C@@H](N)CC(=O)O)C(C)C)CSSC[C@H](NC(=O)CNC(=O)[C@H](Cc3c[nH]c4ccccc34)NC(=O)[C@H](CCCCN)NC2=O)C(=O)N[C@@H](CO)C(=O)N[C@@H](CCCCN)C(=O)N[C@@H](CO)C(=O)N[C@@H](CCC(=O)O)C(=O)N[C@@H]([C@@H](C)CC)C(=O)N[C@@H](CO)C(=O)N[C@@H](CO)C(=O)N[C@@H](CC(C)C)C(=O)N[C@H](C(=O)O)CSSC[C@@H](C(=O)NCC(=O)NCC(=O)N[C@@H](CO)C(=O)N[C@@H](CCCNC(=N)N)C(=O)N[C@@H](Cc2c[nH]c3ccccc23)C(N)=O)NC(=O)[C@H]([C@@H](C)O)NC(=O)[C@H](Cc2ccccc2)NC(=O)[C@H]([C@@H](C)CC)NC(=O)[C@H](C(C)C)NC(=O)[C@H](C)NC(=O)[C@H](CCCNC(=N)N)NC1=O [H3 A-acid]	34.7	151	4.9	117	–	–
CC[C@H](C)[C@@H]1NC(=O)[C@H](Cc2ccccc2)NC(=O)[C@H](CCC(=O)O)NC(=O)[C@H](CCCNC(=N)N)NC(=O)CNC(=O)[C@@H](NC(=O)[C@H](CC(C)C)NC(=O)[C@H](CCCNC(=N)N)NC(=O)[C@@H](NC(=O)CNC(=O)[C@H](Cc2ccc(O)cc2)NC(=O)[C@@H]2CCCN2C(=O)[C@H](C)NC(=O)[C@H](C)NC(=O)[C@@H](N)CCCNC(=N)N)C(C)C)CSSC[C@@H]2NC(=O)[C@@H](NC(=O)[C@H](CO)NC(=O)[C@H](CO)NC(=O)[C@H](CO)NC(=O)[C@H](CC(C)C)NC(=O)CNC(=O)[C@H](C)NC(=O)[C@H](CC(C)C)NC(=O)[C@@H](NC(=O)[C@@H](N)CC(=O)O)C(C)C)CSSC[C@H](NC(=O)CNC(=O)[C@H](Cc3c[nH]c4ccccc34)NC(=O)[C@H](CCCCN)NC2=O)C(=O)N[C@@H](CO)C(=O)N[C@@H](CCCCN)C(=O)N[C@@H](CO)C(=O)N[C@@H](CCC(=O)O)C(=O)N[C@@H]([C@@H](C)CC)C(=O)N[C@@H](CO)C(=O)N[C@@H](CO)C(=O)N[C@@H](CC(C)C)C(=O)N[C@H](C(N)=O)CSSC[C@@H](C(=O)NCC(=O)NCC(=O)N[C@@H](CO)C(=O)N[C@@H](CCCNC(=N)N)C(=O)N[C@@H](Cc2c[nH]c3ccccc23)C(=O)O)NC(=O)[C@H]([C@@H](C)O)NC(=O)[C@H](Cc2ccccc2)NC(=O)[C@H]([C@@H](C)CC)NC(=O)[C@H](C(C)C)NC(=O)[C@H](C)NC(=O)[C@H](CCCNC(=N)N)NC1=O [H3 B-acid]	1.32	24	0.955	19.1	–	–
CC[C@H](C)[C@@H]1NC(=O)[C@H](Cc2ccccc2)NC(=O)[C@H](CCC(=O)O)NC(=O)[C@H](CCCNC(=N)N)NC(=O)CNC(=O)[C@@H](NC(=O)[C@H](CC(C)C)NC(=O)[C@H](CCCNC(=N)N)NC(=O)[C@@H](NC(=O)CNC(=O)[C@H](Cc2ccc(O)cc2)NC(=O)[C@@H]2CCCN2C(=O)[C@H](C)NC(=O)[C@H](C)NC(=O)[C@@H](N)CCCNC(=N)N)C(C)C)CSSC[C@@H]2NC(=O)[C@@H](NC(=O)[C@H](CO)NC(=O)[C@H](CO)NC(=O)[C@H](CO)NC(=O)[C@H](CC(C)C)NC(=O)CNC(=O)[C@H](C)NC(=O)[C@H](CC(C)C)NC(=O)[C@@H](NC(=O)[C@@H](N)CC(=O)O)C(C)C)CSSC[C@H](NC(=O)CNC(=O)[C@H](Cc3c[nH]c4ccccc34)NC(=O)[C@H](CCCCN)NC2=O)C(=O)N[C@@H](CO)C(=O)N[C@@H](CCCCN)C(=O)N[C@@H](CO)C(=O)N[C@@H](CCC(=O)O)C(=O)N[C@@H]([C@@H](C)CC)C(=O)N[C@@H](CO)C(=O)N[C@@H](CO)C(=O)N[C@@H](CC(C)C)C(=O)N[C@H](C(=O)O)CSSC[C@@H](C(=O)NCC(=O)NCC(=O)N[C@@H](CO)C(=O)N[C@@H](CCCNC(=N)N)C(=O)N[C@@H](Cc2c[nH]c3ccccc23)C(=O)O)NC(=O)[C@H]([C@@H](C)O)NC(=O)[C@H](Cc2ccccc2)NC(=O)[C@H]([C@@H](C)CC)NC(=O)[C@H](C(C)C)NC(=O)[C@H](C)NC(=O)[C@H](CCCNC(=N)N)NC1=O [H3 acid]	1.15	18.6	–	8.71	–	–
Oxytocin: polypeptide hormone	–	–	–	–	only active as a C-terminal amide form	–
angiotensin II: polypeptide hormone	–	–	–	–	active as a C-terminal acid form	–
B1	–	–	–	–	–	equally active either in acid or amide form
